Measured values from patent US8119805B2, “Substituted disulfonamide compounds” (Gruenenthal GmbH, priority 2008, dated 2012).
Structures can show the parent of a compound that is named as a salt.

Experiments:
[1] = biological target: T1, B1R receptor of the rat (rB1R) (Rattus norvegicus, UniProt P97583); experiment: Functional investigation on the bradykinin 1 receptor (B1R), FLIPR Ca2+ assay, rB1R cells; format: cell-based; settings: test substance 10 μM; CHO K1 cells transfected with rat B1R gene; Fluo-4 Ca2+ signal; agonist Des-Arg9-bradykinin at EC80; % of maximum achievable inhibition; read-out: B1R antagonism, rat [10 μM] % inhibition
T1 construct: expressed in transfected cells; host or cells: CHO K1 cells
T1 sequence (P97583 1-337): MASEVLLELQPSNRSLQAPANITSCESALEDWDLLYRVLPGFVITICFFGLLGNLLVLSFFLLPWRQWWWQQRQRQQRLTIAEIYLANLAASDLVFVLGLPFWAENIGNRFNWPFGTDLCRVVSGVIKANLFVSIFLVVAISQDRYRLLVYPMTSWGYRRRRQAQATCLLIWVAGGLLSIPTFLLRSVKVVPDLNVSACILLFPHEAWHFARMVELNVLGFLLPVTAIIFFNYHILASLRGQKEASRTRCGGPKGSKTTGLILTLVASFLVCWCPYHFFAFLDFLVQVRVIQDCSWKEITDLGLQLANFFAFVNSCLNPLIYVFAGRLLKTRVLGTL
Method in brief: (§1)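 CHO K1 cells stably expressing human or rat B1R, Fluo-4 loaded, read by FLIPR (λex 488, λem 540 nm). Test compound (10 μM) first gave % activation against Lys-Des-[MUT]-bradykinin ≥50 nM (hB1R) or Des-[MUT]-bradykinin 10 μM (rB1R). After 10–20 min, agonist at EC80 was added; % inhibition or IC50 from concentration series, n=2–3, N≥2.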

[2] = biological target: T2, human B1R receptor (hB1R) (Homo sapiens, UniProt P46663); experiment: Functional investigation on the bradykinin 1 receptor (B1R), FLIPR Ca2+ assay, hB1R cells; format: cell-based; settings: test substance 10 μM; CHO K1 cells transfected with human B1R gene; Fluo-4 Ca2+ signal; agonist Lys-Des-Arg9-bradykinin at EC80; % of maximum achievable inhibition; read-out: B1R antagonism, human [10 μM] % inhibition
T2 construct: expressed in transfected cells; host or cells: CHO K1 cells
T2 sequence (P46663 1-353): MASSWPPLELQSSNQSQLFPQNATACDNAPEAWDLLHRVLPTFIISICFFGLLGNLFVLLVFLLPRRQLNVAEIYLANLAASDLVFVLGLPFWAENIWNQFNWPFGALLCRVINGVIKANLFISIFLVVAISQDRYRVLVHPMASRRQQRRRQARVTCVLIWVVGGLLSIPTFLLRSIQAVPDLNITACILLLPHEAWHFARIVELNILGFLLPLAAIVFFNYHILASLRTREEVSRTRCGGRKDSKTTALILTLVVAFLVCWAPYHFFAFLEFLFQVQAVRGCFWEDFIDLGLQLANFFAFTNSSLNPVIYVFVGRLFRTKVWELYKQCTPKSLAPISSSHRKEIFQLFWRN
Method in brief: as §1

Row | Compound | inhibition at 10 µM [1] | inhibition at 10 µM [2]
1 | Cc1cccc(Cl)c1S(=O)(=O)N1CCC[C@H]1CCCS(=O)(=O)N1CCC2(CCN(c3ccncc3)CC2)CC1 [Example 65, 3-(3-((S)-1-(2-Chloro-6-methylphenylsulfonyl)pyrrolidin-2-yl)propylsulfonyl)-9-(pyridin-4-yl)-3,9-diazaspiro[5.5]undecane] | 97% | 99%
2 | Cc1cccc(Cl)c1S(=O)(=O)N1CCC[C@H]1CCCS(=O)(=O)N1CCN(C2CCN(C)CC2)CC1 [Example 27, (S)-1-(3-(1-(2-Chloro-6-methylphenylsulfonyl)pyrrolidin-2-yl)propylsulfonyl)-4-(1-methylpiperidin-4-yl)piperazine] | 93% | 108%
3 | Cc1cc(C)c(S(=O)(=O)N2CC[C@@H]2CCCS(=O)(=O)N2CCC(CCN3CCCC3)CC2)c(C)c1 [Example 4, (S)-1-(3-(1-(Mesitylsulfonyl)azetidin-2-yl)propylsulfonyl)-4-(2-(pyrrolidin-1-yl)ethyl)piperidine hydrochloride] | 13% | 76%
4 | O=S(=O)(CCC1CCN(S(=O)(=O)c2cccc(Cl)c2Cl)C1)N1CCC(CCN2CCCC2)CC1 (stereo not shown) [Example 17, 1-(2-(1-(2,3-Dichlorophenylsulfonyl)pyrrolidin-3-yl)ethylsulfonyl)-4-(2-(pyrrolidin-1-yl)ethyl)piperidine hydrochloride] | 12% | 58%
5 | COc1cc(C)c(S(=O)(=O)N2CCCC2CCCCS(=O)(=O)N2CCC(CCN3CCCC3)CC2)c(C)c1C (stereo not shown) [Example 8, 1-(4-(1-(4-Methoxy-2,3,6-trimethylphenylsulfonyl)pyrrolidin-2-yl)butylsulfonyl)-4-(2-(pyrrolidin-1-yl)ethyl)piperidine] | 46% | 59%
6 | Cc1cc(C)c(S(=O)(=O)N2CCCC2CCCCS(=O)(=O)N2CCC(CCN3CCCC3)CC2)c(C)c1 (stereo not shown) [Example 6, 1-(4-(1-(Mesitylsulfonyl)pyrrolidin-2-yl)butylsulfonyl)-4-(2-(pyrrolidin-1-yl)ethyl)piperidine] | 44% | 61%
7 | CN1CCC(N2CCN(S(=O)(=O)CCCCC3CCCN3S(=O)(=O)c3c(Cl)cc(C(F)(F)F)cc3Cl)CC2)CC1 (stereo not shown) [Example 9, 1-(4-(1-(2,6-Dichloro-4-(trifluoromethyl)phenylsulfonyl)pyrrolidin-2-yl)butylsulfonyl)-4-(1-methylpiperidin-4-yl)piperazine] | 30% | 58%
8 | CN1CCC(N2CCN(S(=O)(=O)CCCCC3CCCN3S(=O)(=O)c3cccc4ccccc34)CC2)CC1 (stereo not shown) [Example 5, 1-(1-Methylpiperidin-4-yl)-4-(4-(1-(naphthalen-1-ylsulfonyl)pyrrolidin-2-yl)butylsulfonyl)piperazine dihydrochloride] | 56% | 49%
9 | Cc1cccc(Cl)c1S(=O)(=O)N1CCC[C@H]1CCCS(=O)(=O)N1[C@@H]2CC[C@H]1C[C@H](Oc1ccncc1)C2 [Example 55, (1R,3R,5S)-8-(3-((S)-1-(2-Chloro-6-methylphenylsulfonyl)pyrrolidin-2-yl)propylsulfonyl)-3-(pyridin-4-yloxy)-8-azabicyclo[3.2.1]octane] | 98% | 98%
10 | COc1cc(C)c(S(=O)(=O)N2CCCCC2CCCS(=O)(=O)N2CCC3(CCN(c4ccncc4)CC3)CC2)c(C)c1 (stereo not shown) [Example 74, 3-(3-(1-(4-Methoxy-2,6-dimethylphenylsulfonyl)piperidin-2-yl)propylsulfonyl)-9-(pyridin-4-yl)-3,9-diazaspiro[5.5]undecane] | 95% | 99%
11 | COc1cc(C)c(S(=O)(=O)N2CCCCC2CCCS(=O)(=O)N2CCC3(CC2)CCC(OCCN2CCCC2)(c2cccnc2)CC3)c(C)c1 (stereo not shown) [Example 87, 3-(3-(1-(4-Methoxy-2,6-dimethylphenylsulfonyl)piperidin-2-yl)propylsulfonyl)-9-(pyridin-3-yl)-9-(2-(pyrrolidin-1-yl)ethoxy)-3-azaspiro[5.5]undecane] | 102% | 100%
12 | CN1CCC(N2CCN(S(=O)(=O)CCC[C@@H]3CCCN3S(=O)(=O)c3cccc4ccccc34)CC2)CC1 [Example 30, (S)-1-(1-Methylpiperidin-4-yl)-4-(3-(1-(naphthalen-1-ylsulfonyl)pyrrolidin-2-yl)propylsulfonyl)piperazine] | 48% | 56%
13 | O=S(=O)(CCC[C@@H]1CCCN1S(=O)(=O)Cc1cccc(Cl)c1)N1CCC(Oc2ccncc2)CC1 [Example 70, (S)-4-(1-(3-(1-(3-Chlorobenzylsulfonyl)pyrrolidin-2-yl)propylsulfonyl)piperidin-4-yloxy)pyridine] | 32% | 26%
14 | Cc1cc(S(=O)(=O)N2CCC[C@H]2CCCS(=O)(=O)N2CCC(Oc3ccncc3)CC2)c(C)cc1Cl [Example 53, (S)-4-(1-(3-(1-(4-Chloro-2,5-dimethylphenylsulfonyl)pyrrolidin-2-yl)propylsulfonyl)piperidin-4-yloxy)pyridine] | 86% | 74%
15 | O=S(=O)(CCC[C@@H]1CCCN1S(=O)(=O)c1ccc(C(F)(F)F)cc1Cl)N1CCC(Oc2ccncc2)CC1 [Example 71, (S)-4-(1-(3-(1-(2-Chloro-4-(trifluoromethyl)phenylsulfonyl)pyrrolidin-2-yl)propylsulfonyl)piperidin-4-yloxy)pyridine] | 39% | 30%
16 | O=S(=O)(CCC[C@H]1CCCN1S(=O)(=O)c1ccc2ccccc2c1)N1CCN(c2ccncc2)CC1 [Example 2, (R)-1-(3-(1-(Naphthalen-2-ylsulfonyl)pyrrolidin-2-yl)propylsulfonyl)-4-(pyridin-4-yl)piperazine hydrochloride] | 84% | 102%
17 | Cc1cc(S(=O)(=O)N2CCCCC2CCS(=O)(=O)N2CCN(C3CCN(C)CC3)CC2)c(C)cc1Cl (stereo not shown) [Example 38, 1-(2-(1-(4-Chloro-2,5-dimethylphenylsulfonyl)piperidin-2-yl)ethylsulfonyl)-4-(1-methylpiperidin-4-yl)piperazine dihydrochloride] | 47% | 101%
18 | COc1cc(C)c(S(=O)(=O)N2CCC(CCS(=O)(=O)N3CCC(CCN4CCCC4)CC3)C2)c(C)c1C (stereo not shown) [Example 16, 1-(2-(1-(4-Methoxy-2,3,6-trimethylphenylsulfonyl)pyrrolidin-3-yl)ethylsulfonyl)-4-(2-(pyrrolidin-1-yl)ethyl)piperidine hydrochloride] | 13% | 97%
19 | Cc1cc(F)cc(C)c1S(=O)(=O)N1CCC[C@H]1CCCS(=O)(=O)N1CCC(Oc2ccncc2)CC1 [Example 73, (S)-4-(1-(3-(1-(4-Fluoro-2,6-dimethylphenylsulfonyl)pyrrolidin-2-yl)propylsulfonyl)piperidin-4-yloxy)pyridine] | 99% | 89%
20 | O=S(=O)(CCC1CCN(S(=O)(=O)c2cccc(Cl)c2Cl)C1)N1CCN(c2ccncc2)CC1 (stereo not shown) [Example 21, 1-(2-(1-(2,3-Dichlorophenylsulfonyl)pyrrolidin-3-yl)ethylsulfonyl)-4-(pyridin-4-yl)piperazine hydrochloride] | 73% | 97%
